This is an account of results in patent US8258116B2, “Combination therapy for the treatment of HCV infection” (Vertex Pharmaceuticals Incorporated, priority 2007, dated 2012).

For experiment [1], the system named is HCV NS3 protease variant replicon A156V. The following applies: A156V replicon versus wild-type (Lin et al., 2005); cited from earlier work. (Replicon systems follow genome replication, usually without infectious particles.)
Experiment [2] relates to HCV NS3 protease variant replicon A156T. Conditions: A156T replicon versus wild-type (Lin et al., 2005); cited from earlier work.
The test system of experiment [3] is HCV replicon Wild Type (mADE). The experiment in a line: 2-Day HCV Replicon IC50 Assay, wild type replicon. The format is cell-based. As to the method: (§1) Huh-7 cells were propagated in Dulbecco's modified Eagle's medium (DMEM, JRH Biosciences, Lenexa, Kans.) supplemented with 10% heat-inactivated FBS (fetal bovine serum), 2 mM L-glutamine, and nonessential amino acids (JRH). The cells were transfected with an in vitro transcribed HCV replicon RNA identical to replicon 1377neo/NS3-3′/wt as described by Lohmann et al. (1999). Stable cell clones were selected and maintained in the presence of 250 μg/mL G418 (Invitrogen, Carlsbad, Calif.). […] The HCV NS3 protease variant replicons were constructed in the background of the mADE wild-type replicon as described previously [Chao Lin et al., “In Vitro Resistance Studies of Hepatitis C Virus Serine Protease Inhibitors, VX-950 and BILN 2061: Structural Analysis Indicates Different Resistance Mechanisms,” Journal of Biological Chemistry, 279(17); pp. 17508-17514 (2004)]. The replicon cells were propagated in DMEM supplemented with 10% FBS, 2 mM L-glutamine, nonessential amino acids, and 250 μg/mL G418. The cells were split twice per week in fresh media upon reaching confluence. There are approximately 200-300 copies of HCV RNA per 24-2 replicon cell.
(§2) HCV replicon RNA from cells was measured using the Quantigene Discover XL kit (Panomics Inc., Fremont Calif.) as per the manufacturer's instructions. Briefly, compound-treated replicon cells were lysed and immobilized on to capture plates using HCV specific oligonucleotides (designed based on the 5′ UTR region of HCV 1b genome sequence AJ238799 in the GenBank database) over night and the relative amounts of captured RNA was measured using oligonucleotide probe sets as per the manufacturer's instructions.
(§3) On the day prior to the assay, 10,000 replicon cells were plated per well of a 96-well plate and allowed to attach and grow overnight in DMEM (Invitrogen, Carlsbad, Calif.) supplemented with 10% heat-inactivated FBS (JRH Biosciences, Lenexa, Kans.), 2 mM L-glutamine (Invitrogen), nonessential amino acids (Invitrogen) and 250 μg/ml G418 (Invitrogen). Next day, the medium was removed and antiviral agents that were serially diluted in DMEM containing 2% FBS and 0.5% DMSO (Sigma Chemical Co., St. Louis, Mo.) without G418, was added. The replicon cells were incubated with the antiviral agents for 48 h. HCV replicon RNA from cells was measured using the Quantigene Discover XL kit (Panomics Inc., Fremont Calif.) as per the manufacturer's instructions. Briefly, compound-treated replicon cells were lysed and immobilized onto capture plates using HCV specific oligonucleotides overnight and the relative amounts of captured RNA was measured using oligonucleotide probe sets as per the manufacturer's instructions. Unless indicated otherwise, each data point represents the average of three replicates. The IC50 is the concentration of the compound at which the HCV replicon RNA level in cells is reduced by 50% as compared to the untreated replicon cell controls. To monitor the effect of compounds on cell proliferation or cell viability, replicon cells were treated with serially diluted compounds for 48 h, after which cell viability was determined using a CellTiter Glo assay (Promega, Madison, Wis.). Each CC50 is derived from at least two replicates and is the concentration of the compound at which the number of viable cells is reduced by 50% as compared to untreated cell controls. The IC50 and CC50 was determined using 4-parameter curve fitting in the SoftMax Pro program (Molecular Devices, Sunnyvale, Calif.).
(§4) The sensitivity of NS3 protease variants to ribavirin and interferon was assessed in a 2-Day HCV Replicon IC50 Assay.

Experiment [4] concerns HCV NS3 protease variant replicon R155K. Description: microbe, parasite or virus in culture. The format is cell-based. As for the experimental part: as §1, §2, §3, §4
For experiment [5], the system named is HCV NS3 protease variant replicon V36M-R155T. The experiment in a line: microbe, parasite or virus in culture. The format is cell-based. As to the method:
as §1, §2, §3, §4

The subject of experiment [6] is HCV NS3 protease variant replicon V36M. The experiment in a line: microbe, parasite or virus in culture. The format is cell-based. As for the experimental part: as §1, §2, §3, §4
Experiment [7] concerns HCV NS3 protease variant replicon R155M. Description: microbe, parasite or virus in culture. The format is cell-based. As to the method: as §1, §2, §3, §4
Experiment [8] concerns HCV NS3 protease variant replicon V36A. The experiment in a line: microbe, parasite or virus in culture. The format is cell-based. As to the method:
as §1, §2, §3, §4

Experiment [9] has as its system HCV NS3 protease variant replicon T54A. Description: microbe, parasite or virus in culture. The format is cell-based. As for the experimental part: as §1, §2, §3, §4
For experiment [10], the system named is HCV NS3 protease variant replicon V36A-R155T. Description: microbe, parasite or virus in culture. The format is cell-based. As to the method: as §1, §2, §3, §4
In experiment [11] the test system is HCV NS3 protease variant replicon V36M+R155K. Description: microbe, parasite or virus in culture. The format is cell-based. As to the method:
as §1, §2, §3, §4

The test system of experiment [12] is HCV NS3 protease variant replicon R155T. The experiment in a line: microbe, parasite or virus in culture. The format is cell-based. As for the experimental part:
as §1, §2, §3, §4

The subject of experiment [13] is HCV NS3 protease variant replicon V36A-R155K. The experiment in a line: microbe, parasite or virus in culture. The format is cell-based. As to the method: as §1, §2, §3, §4

Turning to IFN-α, the sensitivity of replicon entry in experiment [1] and in [2] was “comparable to the wild-type” each time. Moreover, the “Avg. IC50” value in experiment [3] (IFN-α, Wild Type (mADE) replicon) is 11.6 ± 1.1 units/ml; in experiment [4] (IFN-α, R155K replicon) it was 15.2 ± 12.3 units/ml; in experiment [5] (IFN-α, V36M-R155T replicon) it was 3.1 ± 0.2 units/ml; in experiment [6] (IFN-α, V36M replicon), 11.3 ± 5.9 units/ml; in [7] (IFN-α, R155M replicon), 4.9 ± 1.0 units/ml; in experiment [8] (IFN-α, V36A replicon), 10.3 ± 6.0 units/ml. For the same substance, the “Avg. IC50” value in experiment [9] (IFN-α, T54A replicon) turned out to be 3.9 ± 0.5 units/ml; in [10] (IFN-α, V36A-R155T replicon) it was 3.9 ± 2.1 units/ml; in [11] (IFN-α, V36M-R155K replicon) it was 10.1 ± 5.9 units/ml; in [12] (IFN-α, R155T replicon) it was 4.8 ± 3.3 units/ml; in experiment [13] (IFN-α, V36A-R155K replicon) it was 6.8 ± 0.5 units/ml. Further, the “Fold Change” value amounted to 1.0 in [3] (Wild Type replicon, ratio of IC50 to Wild type IC50 for the same inhibitor); 1.3 in experiment [4] (R155K, ratio of mutant IC50 to Wild type IC50 for the same inhibitor); 0.3 in experiment [5] (V36M-R155T, ratio of mutant IC50 to Wild type IC50 for the same inhibitor); 1.0 in [6] (V36M, ratio of mutant IC50 to Wild type IC50 for the same inhibitor); 0.4 in experiment [7] (R155M, ratio of mutant IC50 to Wild type IC50 for the same inhibitor); 0.9 in experiment [8] (V36A, ratio of mutant IC50 to Wild type IC50 for the same inhibitor). Further, the “Fold Change” value in experiment [9] (T54A, ratio of mutant IC50 to Wild type IC50 for the same inhibitor) came out at 0.3; in experiment [10] (V36A-R155T, ratio of mutant IC50 to Wild type IC50 for the same inhibitor) it was 0.3; in experiment [11] (V36M-R155K, ratio of mutant IC50 to Wild type IC50 for the same inhibitor), 0.9; in experiment [12] (R155T, ratio of mutant IC50 to Wild type IC50 for the same inhibitor) it was 0.4; in experiment [13] (V36A-R155K, ratio of mutant IC50 to Wild type IC50 for the same inhibitor), 0.6.
